Laboratory results from a melting point compilation (Tetko et al.; mined from patent text by program, amines drawn as free bases though some values may be those of a salt).

Compound	melting point [°C]
OCc1onc(-c2ccc(Cl)o2)c1-c1ccccc1	102 to 103
CN(C1=CC(=O)C(=O)c2ccccc21)C1CCCCC1	168 to 170
COc1ccnc(CSc2nc3cc4c(cc3[nH]2)OC(F)C(F)(F)O4)c1 (stereo unspecified)	139 to 140
CCOC(=O)COc1ccc(C2C(C(=O)OCC)=C(C)N(C)C(C)=C2C(=O)OCC)cc1OC	84 to 85
O=C(O)Cc1ccc(Sc2ccc(O)cc2)cc1	163 to 165
O=C(O)c1csc(-c2ccc3cc(O)c(C45CC6CC(CC(C6)C4)C5)cc3c2)c1	312 to 314
Cc1cc(Cc2cc(C(C)(C)CC(C)(C)C)cc(C(C)(C)CC(C)(C)C)c2O)c(O)c(-n2nc3ccccc3n2)c1	138
O=CNC1Cc2ccccc2NC1=O (stereo unspecified)	197 to 200
NS(=O)(=O)c1ccc(-c2cccc(-c3nc(-c4ccc(C(F)(F)F)cc4)cc(C(F)F)n3)c2)s1	240
CN1C(=O)CN=C(c2ccccc2F)c2cc(NC(=O)N(CCOC(C)(C)C)Cc3ccccc3)ccc21	82 to 86
O=C(Nc1ccc(F)cn1)c1ccc(NCc2ccccc2)nc1	167 to 168
COc1cc(C)c(C(=O)c2c(O)ccc(Br)c2C)c(OC)c1OC	119 to 120
NS(=O)(=O)c1ccccc1SCCF	83 to 85
CC(=O)C(=CS(=O)(=O)N(C)C)c1cccc([N+](=O)[O-])c1	115 to 120
COc1cc(C(=O)O)ccc1Cn1cc(CCC(=O)N(C)C)c2ccc(CCC(=O)N(C)C)cc21	216 to 218
Cn1c(=O)c2c(C(=O)O)nc(O)n2c2ccccc21	> 300
Nc1nnc(-c2ccc3ncn(-c4cccc(C(F)(F)F)c4)c3c2)o1	244 to 245
Cc1nnnn1C(C=CC=O)=C(c1ccc(F)cc1)c1ccc(F)cc1	72 to 78
COC(=O)Cc1ccc(CNC(=O)C2Cc3ccccc3N2S(=O)(=O)c2ccc(-c3cccc(C(F)(F)F)c3)cc2)cc1 (stereo unspecified)	74
CCCCS(=O)(=O)Nc1ccccc1COc1cccc2cccnc12	88 to 89
Nc1nc(Cl)cnc1-c1cccc(Cl)c1Cl	179 to 181
c1cc(-c2ccc(-n3c4ccccc4c4ccccc43)cc2)cc(-n2c3ccccc3c3ccccc32)c1	244 to 246
CC(C(O)c1ccc2[nH]c(=O)[nH]c2c1)N1CCC(Cc2ccccc2)CC1 (stereo unspecified)	221 to 222
CCOC(=O)c1cnc2c(cnn2-c2ccccc2)c1Cl	89 to 91
N#Cc1cccc2c1CCCC2=O	> 230
CC(=O)SCCN(CCC1CCCCC1)C(=O)N[C@@H](C)C(=O)O	89.5 to 90.5

Compound	melting point [°C]
CC1Cc2cc3c(cc2C1=O)C(C)(C)CCC3(C)C (stereo unspecified)	74 to 75.5
CCCCOc1nc(N)c2nc(OC)n(CCCCNCCOC)c2n1	99 to 100
Nc1c([N+](=O)[O-])nc(Cl)c2nncn12	220
Clc1ccc2nc(NC3CCCCC3)n3nc(-c4ccco4)nc3c2c1	158 to 160
O=C(/C=C/C=C(c1ccc(Cl)cc1)c1ccc(Cl)cc1)NCCCCc1cccnc1	146 to 147
CC(C)(C)OC(=O)N1CCN(c2ccc3[nH]cc(Sc4ccccc4)c3c2)CC1	174
CCC1(O)NC(=O)C=C1C (stereo unspecified)	182 to 186
N#CC1CCSc2[nH]c3ccccc3c21 (stereo unspecified)	125 to 126
CC1(c2ccccc2)OC(C=Cc2ccncc2)=CC1=O (stereo unspecified)	165 to 166
CC(C)CNC1NC(=O)N(c2cccs2)C(=O)N1	265 to 268
Oc1cccc2c1CC(N1CCN(c3ncccn3)CC1)CC2 (stereo unspecified)	> 300
C=CCOc1ccc(C(C)(C)C)cc1C(C(=O)O)c1ccccc1 (stereo unspecified)	120 to 122
CC(C)(C)OC(=O)NCCCCCCCBr	48 to 49
Cc1cc(C#N)c(=O)[nH]c1-c1ccccc1	250 to 257
CCOC(=O)C1=C(N)NC(N)=C(C(=O)OCC)C1c1ccnc2ccccc12	145
CCCn1c(=O)[nH]c(=O)c2nc(-c3ccc(/C=C/C(=O)O)cc3)[nH]c21	> 300
CCC(C)Cn1c(=O)n(C)c(=O)c2c1nc(C)n2C(=O)OC (stereo unspecified)	110 to 112
CSC(C)(C)c1nnc(N)s1	195 to 197
CS(=O)(=O)c1cccc(-c2ccc3cnc(Nc4ccc(C5CCN(CC(N)=O)CC5)cc4)nn23)c1	254
NC(=O)c1sc2ncnc(-c3cccc(NC(=O)Nc4ccccc4C(F)(F)F)c3)c2c1N	172 to 175
CS(=O)(=O)NC(c1ccc(Cl)c2nc3n(c12)CCCN3c1c(Cl)cc(Cl)cc1Cl)C(F)(F)F (stereo unspecified)	290 to 291
COc1cc(-c2oc3c(OC)cc(/C=C/CO)cc3c2C)ccc1O	180 to 183
Cc1ccc(NCCC(N)=S)c(C)c1	104 to 105
CCOC(=O)Nc1c(OC)cc(Cc2cnc(N)nc2N)cc1OC	192 to 193
CC(C)NC(=O)OCC(=O)c1cccc(Br)c1	125 to 129
O=C1c2ccccc2C(=O)N1CC#CCSc1nccc(NC(=S)NCC(F)(F)F)n1	124 to 127

Compound	melting point [°C]
Cc1oc(-c2ccccc2)nc1COc1ccc([N+](=O)[O-])cn1	142 to 143
NS(=O)(=O)c1ccc(NC(=O)Nc2ccc(Oc3ccccc3)cc2)cc1	236 to 237
O=C(C=Cc1cccc(S(=O)(=O)NCc2ccc3c(c2)OCO3)c1)NO	163
Cc1cccc(C(C)C)c1NC(=O)Nc1c(-c2ccccc2F)c2cc(Cl)ccc2oc1=O	217 to 218
O=C(NC1CSc2ccccc2NC1=O)OCc1ccccc1 (stereo unspecified)	149 to 151
CCOC1CC2(C)C(CCC3C4CCC(CC)C4(C)CC(N(C)C)C32)CC1O (stereo unspecified)	57 to 59
CC(CF)(CF)C(O)C(Oc1ccc(Cl)cc1)n1cncn1 (stereo unspecified)	97 to 102
Cc1c(Cc2ccc(F)cc2)c(=O)oc2cc(OC(=O)N(C)c3ccccc3)ccc12	185 to 186
N#Cc1ncc(Cl)cc1OC1SCC(O)C(O)C1O (stereo unspecified)	122
CCOC(=O)C1=C(C)NC(c2nccn2C)=NC1c1ccccc1Cl (stereo unspecified)	124 to 127
CC(=O)OC1Cc2ccccc2N(C(N)=O)c2ccccc21 (stereo unspecified)	185
O=C1Cc2cc(C(=O)N3CCN(C(=O)c4ccccc4)CC3)ccc2N1	268 to 270
COC(=O)c1cc(OC)c(OC)cc1NC(=O)c1sccc1S(=O)(=O)Nc1onc(C)c1Cl	167 to 168
C[C@@H]1CNC[C@H]2Cc3c(ncc(F)c3C=NO)N21	195 to 197
OCc1ccc(Cn2c(CC3CCN(Cc4ccccc4)CC3)nc3ccccc32)o1	144
Cc1cc(SCc2ccc(OCc3ccc(Cl)cc3)cc2)ccc1OCC(=O)O	164
COc1cc(C2(O)CCN(C(=O)OC(C)(C)C)CC2)ccc1Nc1ncc2ccc(-c3ccccc3N(C)S(C)(=O)=O)n2n1	111 to 112
Nc1c(-c2ccc(-c3ccccc3)cc2)nc2ccc(Cl)cc2c1C(=O)O	244 to 245
COc1ccc(-c2ccc(C(C)=O)cc2N)cc1	152 to 154
C1=NNC(c2ccccc2)c2ccccc21 (stereo unspecified)	79
NC(=O)CNC(=O)c1cccc(-c2cccc3cc(Cc4cccc(CO)c4)sc23)c1	155 to 156
C=CC(C)ONC(=O)c1nc(-c2ccc(Cl)c(OC)c2F)cc(N)c1Cl (stereo unspecified)	176 to 179
O=c1[nH]c(=O)n(Cc2ccc(OCCc3coc(-c4ccccc4)n3)cc2)[nH]1	224 to 230
Cc1oc(-c2ccccc2)nc1CCOc1cccc2c1ccn2C(C)C(=O)O (stereo unspecified)	157 to 159
O=C1c2cccc3cc4ccccc4c(c23)C(=O)N1CCN1CCCN(CCN2C(=O)c3cccc4cc5ccccc5c(c34)C2=O)C1	222
CC(C)C1COc2ccccc2O1 (stereo unspecified)	124 to 125

Compound	melting point [°C]
CCOC(=O)c1cc(=O)cc(C)o1	35 to 38
CSc1ccc(NC(=N)c2ccccc2)cc1	129 to 131
COc1ccc(-c2nnc(NC3CCN(Cc4ccc(C(=O)O)cc4)CC3)c3cc(OC)ccc23)cc1	295
CCCNC(=O)N1N=C(c2ccc(N)cc2)c2cc(Cl)ccc2CC1C (stereo unspecified)	88 to 90
O=C(O)C1=Cc2cc(Cl)c(Oc3cccc(Cl)n3)cc2OC1C(F)(F)F (stereo unspecified)	226 to 227
COCc1c(-c2ccncc2)[nH]c(-c2ccncc2)c1C(C)=O	154 to 156
Cc1ccc(C(=O)c2cccnc2C(=O)O)cc1	168 to 170
CCCOc1ncc(NC(=O)N(C)C)cc1-c1nc2c(CCC)nn(C)c2c(=O)[nH]1	219 to 220
Clc1ccc(C2CN(C(c3ccccc3)c3ccccc3)C2)cc1	82
C#CCOc1cc(Oc2cc(Cl)ccc2Cl)ncn1	87.7
COC(=O)C(O)=Cc1ccc(OCc2ccc(F)cc2)cn1	131 to 132
O=C1CCCc2c(F)cc(F)cc21	89 to 91
O=C(c1ccc(Cc2ccc(F)cc2)o1)c1oc(CO)cc(=O)c1OCc1ccccc1	104 to 106
CCN(CC)CCNC(=O)c1cc(Cl)c(N)cc1OCCOC(C)=O	101 to 102
COc1cc(OC)c(-c2cccs2)cc1/C=C/C(=O)c1ccc(S(=O)(=O)Nc2ccccn2)cc1	141 to 143
COc1ccc2c(c1)CC(O)C2 (stereo unspecified)	67 to 69
CC1CN(CC(C)C(O)c2ccc(C(C)(C)C)cc2)CC(C)O1 (stereo unspecified)	49 to 50
CCCNC1=Nc2cccnc2N(CC)c2ncccc21	114 to 116
O=C(c1ccc(Nc2nc(-c3ccccc3)nc3ccccc23)cc1)N1CCN(c2ncc(Cc3ccccc3)cn2)CC1	> 250
Fc1ccc(-c2c[nH]cn2)cc1	130 to 132
CCOc1nc2ccnn2c2ncccc12	162
O=C1NC(=S)S/C1=C\c1ccc(COc2ccc(C(=O)c3ccccc3)cc2)cc1	244 to 246
Cc1cc(SC2=C(O)CC(CCc3ccc(O)cc3)(C3CCCC3)OC2=O)c(C(C)(C)C)cc1OCCO (stereo unspecified)	113 to 115
